Like-named read-outs stand apart in the source and are kept apart here. Bounds are passed on as bounds.

What all share (assay): MMP microfluorometric profiling assay (fluorogenic Mca-peptide substrate)
Assay type in all cases: biochemical

Assay [1] addresses T1, MMP-1 (Homo sapiens, UniProt P03956).
T1 construct: MMP-1 from human rheumatoid synovial fibroblasts was purchased; purchased Calbiochem-Novabiochem Corporation, LaJolla; host or cells: human rheumatoid synovial fibroblasts
T1 sequence (P03956 100-469): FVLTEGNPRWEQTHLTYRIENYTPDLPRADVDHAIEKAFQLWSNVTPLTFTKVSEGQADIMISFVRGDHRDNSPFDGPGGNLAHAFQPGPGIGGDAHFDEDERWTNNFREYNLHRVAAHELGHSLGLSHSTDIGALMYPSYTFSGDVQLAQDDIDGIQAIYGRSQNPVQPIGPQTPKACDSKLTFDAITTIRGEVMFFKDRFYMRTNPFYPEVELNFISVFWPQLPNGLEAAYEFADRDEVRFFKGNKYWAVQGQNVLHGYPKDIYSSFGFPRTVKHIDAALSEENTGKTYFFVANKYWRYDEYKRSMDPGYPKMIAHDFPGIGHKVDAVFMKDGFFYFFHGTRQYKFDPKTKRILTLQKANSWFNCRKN
How it is done: (§1) The tested MMP enzymes were prepared more specifically in the laboratories of the applicants, with the exception of MMP-1. MMP-1 from human rheumatoid synovial fibroblasts was purchased from Calbiochem-Novabiochem Corporation, LaJolla. Preparation of the recombinant catalytic domain of human Gelatinase A (cdMMP-2): The catalytic domain of Pro-Gelatinase A was prepared using an E. coli expression system according to the method described by Kröger et al^[19]. The proenzyme was activated with 0.5 mM APMA at 37°C prior to use in the assay. Preparation of the recombinant catalytic domain of human neutrophile Collagenase (cdMMP-8^Met80): The enzyme was expressed in E. coli as an active variant by the method of Kleine et al^[20]. Preparation of PMNL-Gelatinase (MMP-9): Latent PMNL-pro-Gelatinase was prepared from human plasma buffy coat as described by Tschesche et al^[21]. PMNL-pro-Gelatinase was activated prior to use by incubation with Trypsin at 37°C for 10 min. Inactivation of Trypsin was accomplished with TKI. Preparation of the recombinant catalytic domain of human Macrophage Elastase (cdMMP-12): The catalytic domain of MMP-12 was expressed in E. coli. The overexpressed protein was isolated as inclusion bodies and the renatured protein was purified by affinity chromatography with a hydroxamate inhibitor coupled column as described^[22]. Preparation of the recombinant catalytic domain of human Collagenase-3 (cdMMP-13): Human pro-cdMMP-13 was prepared using an E. coli expression system according to the method described^[23]. The isolated pro-cdMMP-13 was activated prior to use by incubation with 5 mM HgCl2 for 2 h at 37°C. Preparation of the recombinant catalytic domain of Membrane-Type-1 MMP (cdMMP-14): The catalytic domain of MMP-14 was expressed in E. coli and was activated by autocatalysis^[24]. Preparation of the recombinant human ectodomain of Membrane-Type-1 MMP (ΔTM-MMP-14): The ectodomain of MMP-14 was expressed in Pichia Pastoris by the method of Roderfeld et al. and activated by yeast proteases (Furin-like-proteases) during maturation^[25].
(§2) The enzymatic activity was measured using a modified version of a resonance energy transfer fluorogenic assay as described^[26]. Progress curves were monitored by following the increase in fluorescence at 393 nm (λex = 328 nm), induced by the cleavage of the (7-methoxycoumarin-4-yl)acetyl-Pro-Leu-Gly-Leu-(3-[2,4-dinitro-phenyl]-L-2,3-diamino-propionyl)-Ala-Arg-NH2 (Mca-Pro-Leu-Gly-Leu-Dpa-Ala-Arg-NH2) fluorogenic substrate by MMPs. The fluorescent MCA-group is quenched by resonance energy transfer to the 2,4-dinitrophenyl group. Matrix metalloproteinases cleave this substrate at the Gly-Leu bond. Cleavage results in the loss of energy transfer and a large increase in fluorescence of the MCA group. This substrate is commercially available from Bachem, Switzerland.
(§3) Enzyme inhibition assays were carried out in MRB which consisted of 50 mM HEPES/NaOH, pH 7.0, 10 mM CaCl2 and 0,02% (w/v) PEG 8000 at 25°C. MMP microfluorometric profiling assay was done in white U-bottomed 96-well plates (Microfluor 1 White, Dynex, USA) with a final substrate concentration of 6 µM MCA-peptide, approximately 0.3 to 5 nM MMP with variable inhibitor concentrations and 2% DMSO vehicle. From a 1.5 mM stock (100% DMSO) the inhibitors were serially diluted with MRB to 15, 10, 5, 3, 1, 0.6, 0.3, 0.1, 0.05, 0.01 and 0.005 µM final assay concentration. Column 1, rows A through H, contained only DMSO for the "enzyme-only" wells in the assay. After preincubation for 30 min at 25°C the reaction was started by addition of substrate and the plate was read on a SpectraFluor Plus (Tecan, Germany) plate reader with excitation at 330 nm and emission at 405 nm with the gain set to 150. Each measurement was done in triplicate to ensure statistically significant results. […]

For assay [2], the target named is T2, MMP-9 (Homo sapiens, UniProt P14780).
T2 construct: from tissue; host or cells: human plasma buffy coat (PMNL)
How it is done:
as §1, §2, §3

Assay [3] addresses T3, cdMMP-12 (Homo sapiens, UniProt P39900).
T3 construct: The catalytic domain of MMP-12 was expressed in E. coli; made in house; host or cells: E. coli
How it is done:
as §1, §2, §3

In assay [4] the target is cdMMP-13 (Homo sapiens, UniProt P45452). The protocol:
as §1, §2, §3

In assay [5] the target is T4, cdMMP-14 (Homo sapiens, UniProt P50281).
T4 construct: made in house; host or cells: E. coli
How it is done:
as §1, §2, §3

T3 sequence (P39900 106-263 limits assumed): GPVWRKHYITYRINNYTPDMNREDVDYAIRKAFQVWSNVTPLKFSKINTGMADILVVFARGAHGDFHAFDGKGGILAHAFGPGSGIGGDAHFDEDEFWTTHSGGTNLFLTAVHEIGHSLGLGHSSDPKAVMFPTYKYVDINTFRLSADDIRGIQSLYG
T2 sequence (P14780 107-707 limits assumed): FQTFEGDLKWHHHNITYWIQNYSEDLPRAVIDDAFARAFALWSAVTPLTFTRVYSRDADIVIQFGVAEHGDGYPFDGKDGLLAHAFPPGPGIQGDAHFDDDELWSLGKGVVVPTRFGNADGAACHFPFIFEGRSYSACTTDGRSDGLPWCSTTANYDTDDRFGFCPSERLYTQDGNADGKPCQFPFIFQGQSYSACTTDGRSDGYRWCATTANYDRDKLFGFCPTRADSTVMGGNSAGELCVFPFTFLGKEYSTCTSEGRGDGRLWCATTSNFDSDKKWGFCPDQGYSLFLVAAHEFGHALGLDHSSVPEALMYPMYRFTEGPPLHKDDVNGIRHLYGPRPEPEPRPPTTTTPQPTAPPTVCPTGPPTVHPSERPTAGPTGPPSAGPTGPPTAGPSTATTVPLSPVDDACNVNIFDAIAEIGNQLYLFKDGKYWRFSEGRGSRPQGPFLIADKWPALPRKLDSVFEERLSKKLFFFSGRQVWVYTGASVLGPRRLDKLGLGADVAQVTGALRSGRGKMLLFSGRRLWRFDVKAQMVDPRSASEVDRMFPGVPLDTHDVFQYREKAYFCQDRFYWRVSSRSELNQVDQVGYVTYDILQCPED

The IC50 is the point on the concentration scale where inhibition reaches its midpoint. With `C[C@H](NS(=O)(=O)c1ccccc1)C(=O)NC1=NN=C(c2ccc([N+](=O)[O-])cc2)CS1` [Example 9, (2S)-N-[5-(4-Nitrophenyl)-6H-1,3,4-thiadiazin-2-yl]-2-[(phenylsulfonyl)amino]-propanamide], the concentration for half-maximal inhibition (IC50) in assay [1] came to 294 nM; in assay [2] it was 552 nM; in assay [3], 342 nM; in assay [4] (read-out: cdMMP-13 IC50), 449 nM; in assay [5] it was 556 nM.

Take `CC(C)[C@@H](NS(=O)(=O)c1ccccc1)C(=O)NC1=NN=C(c2ccc(Cl)cc2)CS1` [Example 2, (2R)-N-[5-(4-Chlorophenyl)-6H-1,3,4-thiadiazin-2-yl]-3-methyl-2-[(phenylsulfonyl)amino]butanamide]: the IC50 was 629 nM in assay [1], 426 nM in assay [3], over 15000 nM in assay [4] (read-out: cdMMP-13 IC50) and 1110 nM in assay [5]. In assay [2] (MMP-9, @ 15 (µM)), this compound displayed a percent inhibition of 40%^a)@ 15.

As to `C[C@@H](NS(=O)(=O)c1ccccc1)C(=O)NC1=NN=C(c2ccc(F)cc2)CS1` [Example 14, (2R)-N-[5-(4-Fluorophenyl)-6H-1,3,4-thiadiazin-2-yl]-2-[(phenylsulfonyl)amino]-propanamide], the IC50 in assay [1] was 725 nM; in assay [2], 216 nM; in assay [3] it was 425 nM; in assay [4] (read-out: cdMMP-13 IC50), 537 nM; in assay [5], 727 nM.

`C[C@H](NS(=O)(=O)c1cccnc1)C(=O)NC1=NN=C(c2ccc(Cl)cc2)CS1` [Example 29, (2S)-N-[5-(4-Chlorophenyl)-6H-1,3,4-thiadiazin-2-yl]-2-[(3-pyridylsulfonyl)-amino]propanamide]: the IC50 in assay [1] worked out at 507 nM; in assay [2], 257 nM; in assay [3], 403 nM; in assay [4] (read-out: cdMMP-13 IC50) it was 361 nM; in assay [5], 443 nM.

With `C[C@H](NS(=O)(=O)N1CCOCC1)C(=O)NC1=NN=C(c2ccc(Cl)cc2)CS1` [Example 28, (2S)-N-[5-(4-Chlorophenyl)-6H-1,3,4-thiadiazin-2yl-]-2-[(4-morpholinylsulfonyl)amino]propanamide], the IC50 stood at 537 nM in assay [1]; 1200 nM in assay [2]; 330 nM in assay [3]; 735 nM in assay [4]; 471 nM in assay [5].

`O=C1C[C@@H](C(=O)NC2=NN=C(c3ccc(Cl)cc3)CS2)NC(=O)N1` [Example 30, (4S)-N-[5-(4-Chlorophenyl)-6H-1,3,4-thiadiazin-2-yl]-2,6-dioxohexahydro-4-pyrimidinecarboxamide]: the IC50 in assay [1] was determined as 560 nM; in assay [2], 780 nM; in assay [3], 654 nM; in assay [4] (read-out: cdMMP-13 IC50), 947 nM; in assay [5] it was 477 nM.

On to `C[C@H](NS(=O)(=O)c1ccccc1)C(=O)NC1=NN=C(c2ccc(C#N)cc2)CS1` [Example 3, (2S)-N-[5-(4-Cyanophenyl)-6H-1,3,4-thiadiazin-2-yl]-2-[(phenylsulfonyl)amino]-propanamide], for which the IC50 turned out to be 449 nM in assay [1]; 329 nM in assay [2]; 447 nM in assay [3]; 387 nM in assay [4] (read-out: cdMMP-13 IC50); 459 nM in assay [5].

The values are drawn from patent publication EP1191024A1, “Thiadiazines and their use as inhibitors of metalloproteinases” (Tschesche, Harald, priority 2000, dated 2002).
